Measurements from ChEMBL document CHEMBL4402556, “Mycobacterium tuberculosis Decaprenylphosphoryl-β-d-ribose Oxidase Inhibitors: Expeditious Reconstruction of Suboptimal Hits into a Series with Potent in Vivo Activity” (J Med Chem, 2020).
In brackets after ≈: the same amount, converted by molar mass.

Key:
[1] = Inhibition of Mycobacterium tuberculosis DprE1 expressed in Escherichia coli BL21 (DE3) using farnesylphosphoryl-beta-D-ribose as substrate
[2] = tested on: Mycobacterium tuberculosis; assay: Antitubercular activity against wild type Mycobacterium tuberculosis H37Rv ATCC 25618 assessed as bacterial growth inhibition measured after 6 days by resazurin assay; format: functional; details: H37Rv ATCC 25618, 144 h
[3] = Kinetic aqueous solubility of the compound in phosphate buffer saline at pH 7.4 after 1 hr by CLND method; format: physicochemical; details: phosphate buffered saline, read-out: Kinetic_solubility
[4] = tested on: Mycobacterium tuberculosis; assay: Antitubercular activity against Mycobacterium tuberculosis H37Rv infected in po dosed C57BL/6 mouse model of acute infection assessed as effect on mycobacterial burden in lung pretreated with CYP inhibitor ABT 2 hrs prior followed by compound administration for 8 consecutive days starting from day 1 post-infection and measured after 24 hrs post-last dose; format: functional
[5] = tested on: Mycobacterium tuberculosis; assay: (§1) Antitubercular activity against Mycobacterium tuberculosis H37Rv infected in po dosed C57BL/6 mouse model of acute infection assessed as reduction in mycobacterial burden in lung administration for 8 consecutive days starting from day 1 post-infection and measured after 24 hrs post-last dose; format: functional
[6] = tested on: Mycobacterium tuberculosis; assay: Antitubercular activity against wild type Mycobacterium tuberculosis H37Rv ATCC 25618 transfected with pATB45luc plasmid expressing luciferase infected in human THP1 cells assessed as reduction in bacterial growth after 4 days by BrightGlo luciferase assay; format: functional; details: H37Rv ATCC 25618, 96 h
[7] = tested on: HepG2; assay: Cytotoxicity against human HepG2 cells assessed as reduction in cell viability measured after 48 hrs by CellTiter-Glo assay; format: cell-based; details: HepG2, 48 h
[8] = tested on: Mycobacterium tuberculosis; assay: Antibacterial activity against Mycobacterium tuberculosis transfected with pMV261 vector expressing DprE1 assessed as bacterial growth inhibition; format: functional
[9] = tested on: Escherichia coli; assay: Antibacterial activity against Escherichia coli assessed as bacterial growth inhibition; format: functional
[10] = tested on: Staphylococcus aureus; assay: Antibacterial activity against Staphylococcus aureus assessed as bacterial growth inhibition; format: functional
[11] = Solubility of the compound in FaSSIF; format: physicochemical
[12] = Clearance in CD-1 mouse at 1 mg/kg, iv administered as single dose measured up to 24 hrs by LC-MS/MS analysis; format: ADME, organism-based; details: in vivo
[13] = Volume of distribution at steady state in CD-1 mouse at 1 mg/kg, iv administered as single dose measured up to 24 hrs by LC-MS/MS analysis; format: ADME, organism-based; details: in vivo, read-out: Vdss
[14] = Half life in CD-1 mouse at 1 mg/kg, iv administered as single dose measured up to 24 hrs by LC-MS/MS analysis; format: ADME, organism-based; details: in vivo
[15] = Oral bioavailability in CD-1 mouse at 5 mg/kg administered as single dose measured up to 24 hrs by LC-MS/MS analysis; format: ADME, organism-based; details: in vivo
[16] = tested on: Mycobacterium tuberculosis; assay: as §1, with “in” for “in po dosed”, “at 100 mg/kg, po treated” for “administration”, “dose (reference value: 5.8 log10cfu)” for “dose”; format: functional

Structure (SMILES) | pIC50 [1] | MIC90 [2] [µM] | also measured
CC1CCN(C(=O)C2CCN(c3nnc(-n4cccc4)s3)CC2)CC1 | 6.3 | 20.8 (≈ 7.48 µg/mL) | solubility kinetic at 1 h [3]: 328 µM (≈ 118 µg/mL)
O=C(C1CCN(c2nnc(-n3cccc3)s2)CC1)N1CCC(Cc2ccccc2)CC1 | 7.3 | 4 (≈ 1.74 µg/mL) | solubility kinetic at 1 h [3]: < 1 µM
COc1ncnc(Cn2cc(C(=O)NCCF)c3ncccc32)c1C | 7.4 | 4 (≈ 1.37 µg/mL) | ED99 [4]: 11 mg/kg; ED99 [5]: 164 mg/kg; MIC90 [6]: 0.62 µM (≈ 0.213 µg/mL); IC50 [7]: > 100 µM; MIC90 [8]: > 125 µM; solubility kinetic at 1 h [3]: 26 µM (≈ 8.93 µg/mL)
CCN(CC)CCC1CCN(C(=O)C2CCN(c3cc(N4CCOCC4)ncn3)CC2)CC1 | < 4 | > 125 | –
CC(C)C1CCN(C(=O)C2CCN(c3cccc(N4CCOCC4)n3)CC2)CC1 | 5 | > 125 | –
O=C(C1CCN(c2cc(N3CCOCC3)ncn2)CC1)N1CCC(Cc2ccccc2)CC1 | 7.6 | 0.6 (≈ 0.27 µg/mL) | MIC90 [6]: 0.07 µM (≈ 0.0315 µg/mL); MIC90 [8]: > 16 µM; solubility kinetic at 1 h [3]: 280 µM (≈ 126 µg/mL); MIC [9]: > 128 µg/mL; MIC [10]: > 128 µg/mL
CC1CCN(C(=O)C2CCN(c3cc(N4CCCC4)ncn3)CC2)CC1 | 5.9 | 23.4 (≈ 8.37 µg/mL) | –
CC(C)C1CCN(C(=O)C2CCN(c3cc(N4CCOCC4)ncn3)CC2)CC1 | 7.1 | 4 (≈ 1.61 µg/mL) | –
O=C(C1CCN(c2ccncn2)CC1)N1CCC(Cc2ccccc2)CC1 | 4.8 | > 125 | –
CC1CCN(C(=O)C2CCN(c3cc(N(C)C)ncn3)CC2)CC1 | 5 | 125 (≈ 41.4 µg/mL) | –
c1nc(N2CCCCC2)cc(N2CCOCC2)n1 | 4.1 | – | –
O=C(C1CCN(c2cc(N3CCOCC3)ncn2)CC1)N1CCC(CCN2CCCC2)CC1 | 4.1 | > 125 | –
O=C(C1CCN(c2cc(N3CCOCC3)ncn2)CC1)N1CCC(Cc2ccccc2)C1 (configuration not stated) | 6.9 | 4 (≈ 1.74 µg/mL) | –
CC(C)C1CCN(C(=O)C2CCN(c3cc(N4CCOCC4)ccn3)CC2)CC1 | 5.2 | > 125 | –
CN1CCN(c2cc(N3CCC(C(=O)N4CCC(Cc5ccccc5)CC4)CC3)ncn2)CC1 | 4.7 | 125 (≈ 57.8 µg/mL) | –
O=C(C1CCN(c2cc(N3CCOCC3)ncn2)CC1)N1CCC(Oc2ccc(Cl)cc2)CC1 | 7.5 | 1.5 (≈ 0.729 µg/mL) | –
CC(C)C1CCN(C(=O)C2CCN(c3ccnc(N4CCOCC4)c3)CC2)CC1 | 5.1 | > 125 | –
CC(=O)N1CCC(C(=O)N2CCC(C)CC2)CC1 | < 3 | – | –
O=C(C1CCN(c2cc(N3CCOCC3)ncn2)CC1)N1CCC(O)(Cc2ccccc2)CC1 | 5.8 | 10 (≈ 4.66 µg/mL) | –

Structure (SMILES) | pIC50 [1] | MIC90 [2] [µM] | also measured
O=C(C1CCN(c2cc(N3CCOCC3)ncn2)CC1)N1CCCC(Cc2ccccc2)C1 (configuration not stated) | 6.2 | 32 (≈ 14.4 µg/mL) | –
O=C(C1CCN(c2cc(N3CCOCC3)ncn2)CC1)N1CCC(Nc2ccccc2)CC1 | 6.4 | 10 (≈ 4.51 µg/mL) | –
CC(=O)N1CCC(C(=O)N2CCC(Cc3ccccc3)CC2)CC1 | < 4 | – | –
O=c1nc(N2CCOCC2)cc(N2CCCCC2)[nH]1 | 4.5 | – | –
O=C(C1CCN(c2cc(N3CCCCC3)ncn2)CC1)N1CCC(Cc2ccccc2)CC1 | 7.1 | 2.5 (≈ 1.12 µg/mL) | solubility kinetic at 1 h [3]: 28 µM (≈ 12.5 µg/mL)
CC(=O)N1CCN(c2cc(N3CCOCC3)ncn2)CC1 | < 4 | – | –
O=C(C1CCN(c2cc(N3CCOCC3)ncn2)CC1)N1CCC(Oc2ccc(Cl)cc2F)CC1 | 7.7 | 0.5 (≈ 0.252 µg/mL) | –
O=C(C1CCN(c2cc(N3CCOCC3)ncn2)CC1)N1CCN(c2ccc(F)cc2)CC1 | 6.2 | 20 (≈ 9.09 µg/mL) | –
CC1CCN(C(=O)C2CCN(c3cc(N4CCCCC4)ncn3)CC2)CC1 | 6.5 | 15.6 (≈ 5.8 µg/mL) | solubility kinetic at 1 h [3]: > 488 µM
O=C(C1CCN(c2cc(N3CCOCC3)ncn2)CC1)N1CCc2ccccc2C1 | 6.5 | 10 (≈ 4.08 µg/mL) | –
FC1(F)CCN(c2cc(N3CCOCC3)ncn2)C1 | 4.1 | – | –
O=C(C1CCN(c2ncnc(N3CCOCC3)c2F)CC1)N1CCC(Cc2ccccc2)CC1 | 7.2 | 1.3 (≈ 0.608 µg/mL) | –
O=C(C1CCN(c2cc(N3CCOCC3)[nH]c(=O)n2)CC1)N1CCC(Cc2ccccc2)CC1 | 7.4 | 3 (≈ 1.4 µg/mL) | –
O=C(C1CCN(c2cc(N3CCOCC3)ncn2)CC1)N1CCC(Cc2cccnc2)CC1 | 7 | 3.3 (≈ 1.49 µg/mL) | –
Nc1nc(N2CCOCC2)cc(N2CCC(C(=O)N3CCC(Cc4ccccc4)CC3)CC2)n1 | 7.3 | 3.5 (≈ 1.63 µg/mL) | –
CC1CCN(C(=O)C2CCN(c3cc(NC4CCCC4)ncn3)CC2)CC1 | 4.7 | > 125 | –
O=C(C1CCN(c2cc(N3CCOCC3)ncn2)CC1)N1CCC(CC2CCCC2)CC1 | 7.6 | 3 (≈ 1.32 µg/mL) | –
c1nc(N2CCOCC2)cc(N2CCC3(CCCO3)CC2)n1 | 4.1 | – | –
CN(C)c1cc(N2CCCCC2)ncn1 | 3.9 | – | –

Structure (SMILES) | pIC50 [1] | MIC90 [2] [µM] | also measured
O=C(C1CCN(c2cc(N3CCOCC3)ncn2)CC1)N1CCC(Oc2ccccc2)CC1 | 8.1 | 2 (≈ 0.903 µg/mL) | –
O=C(c1ccc(F)cc1)N1CCN(C(=O)C2CCN(c3cc(N4CCOCC4)ncn3)CC2)CC1 | 4.6 | > 80 | –
O=C(C1CCN(c2nccc(N3CCCCC3)n2)CC1)N1CCC(Cc2ccccc2)CC1 | 6.8 | 16 (≈ 7.16 µg/mL) | –
c1nc(N2CCCCC2)cc(N2CCCCC2)n1 | 4.1 | – | –
O=C(C1CCN(c2cc(N3CCOCC3)ncn2)CC1)N1CCC(Cc2ccc(F)cc2)CC1 | 7.6 | 0.6 (≈ 0.281 µg/mL) | ED99 [5]: 30 mg/kg; MIC90 [6]: 0.21 µM (≈ 0.0982 µg/mL); IC50 [7]: 50.1 µM; MIC90 [8]: 15 µM (≈ 7.01 µg/mL); solubility kinetic at 1 h [3]: 160 µM (≈ 74.8 µg/mL); solubility [11]: 40 µM (≈ 18.7 µg/mL); clearance [12]: 38.9 mL/min/kg; Vd [13]: 1.3 L/kg; half-life [14]: 27 min; bioavailability [15]: 100%
CC1(C)CCCN(c2cc(N3CCOCC3)ncn2)C1 | 4.6 | – | –
O=C(C1CCN(c2cc(N3CCCCC3)ncn2)CC1)N1CCCCC1 | 5.8 | 35.6 (≈ 12.7 µg/mL) | solubility kinetic at 1 h [3]: > 405 µM
O=C(C1CCN(c2cc(N3CCOCC3)ncn2)CC1)N1CCCCC1Cc1ccccc1 (configuration not stated) | 5.4 | 125 (≈ 56.2 µg/mL) | –
CC1CCN(C(=O)C2CCN(c3cc(N4CCOCC4)ncn3)CC2)CC1 | 6 | 15.6 (≈ 5.83 µg/mL) | –
c1nc(N2CCCCCC2)cc(N2CCOCC2)n1 | < 4 | – | –
O=C(C1CCN(c2cc(N3CCOCC3)ncn2)CC1)N1CCOC(Cc2ccccc2)C1 (configuration not stated) | 5.2 | > 125 | –
O=C(C1CCN(c2cncc(N3CCOCC3)n2)CC1)N1CCC(Cc2ccccc2)CC1 | 7.4 | 3 (≈ 1.35 µg/mL) | –
CC(C)N(C)c1cc(N2CCOCC2)ncn1 | < 4 | – | –
CCC1CCN(C(=O)C2CCN(c3cc(N4CCOCC4)ncn3)CC2)CC1 | 6.8 | 8 (≈ 3.1 µg/mL) | –
O=C(C1CCN(c2cc(N3CCOCC3)ncn2)CC1)N1CCC(Oc2ccc(F)cc2F)CC1 | 7.5 | 1 (≈ 0.488 µg/mL) | –
O=C(C1CCN(c2cc(N3CCOCC3)ncn2)CC1)N1CCC(Cc2ccccn2)CC1 | 6.6 | 8.8 (≈ 3.97 µg/mL) | –
O=C(C1CCN(c2cc(N3CCOCC3)ncn2)CC1)N1CCC(Oc2ccc(F)cc2)CC1 | 7.3 | 1.7 (≈ 0.798 µg/mL) | ED99 [5]: 29 mg/kg; MIC90 [6]: 0.62 µM (≈ 0.291 µg/mL); IC50 [7]: 31.6 µM; MIC90 [8]: 62 µM (≈ 29.1 µg/mL); solubility kinetic at 1 h [3]: ≥ 364 µM; solubility [11]: 74 µM (≈ 34.7 µg/mL); clearance [12]: 23.5 mL/min/kg; Vd [13]: 1.7 L/kg; half-life [14]: 60 min; bioavailability [15]: 78.7%
Cc1ccc(OC2CCN(C(=O)C3CCN(c4cc(N5CCOCC5)ncn4)CC3)CC2)nc1 | 6.2 | 16 (≈ 7.47 µg/mL) | –
COc1c(N2C[C@@H]3CCCN[C@@H]3C2)c(F)cc2c(=O)c(C(=O)O)cn(C3CC3)c12 [MOXIFLOXACIN] | – | – | Activity [16]: 2.7 log10CFU
